Assay results as given in ChEMBL document CHEMBL5058564, “EUbOPEN Chemogenomics Library 2 (Incucyte)” (2022).

Tests used:
Type in all cases: toxicity, cell-based
[1] = tested on: HEK-293T; assay: Incucyte cell viability with HEK293T; details: human, 10 µM, compound concentration 10 uM
[2] = tested on: Fibroblast; assay: Incucyte cell viability with human fibroblast; details: 10 µM, compound concentration 10 uM
[3] = tested on: U2OS; assay: Incucyte cell viability with U2OS; details: human, 10 µM, compound concentration 10 uM
[4] = 0 h, replicate number 2, timepoint 0 hours
[5] = 6 h, replicate number 1, timepoint 6 hours
[6] = 18 h, replicate number 1, timepoint 18 hours
[7] = 6 h, replicate number 2, timepoint 6 hours
[8] = 12 h, replicate number 1, timepoint 12 hours
[9] = 12 h, replicate number 2, timepoint 12 hours
[10] = 18 h, replicate number 2, timepoint 18 hours
[11] = 24 h, replicate number 1, timepoint 24 hours
[12] = 24 h, replicate number 2, timepoint 24 hours
[13] = 0 h, replicate number 1, timepoint 0 hours
Also: unitless GR value; below 1 slowed growth and below 0 cell loss.

Compound | Growth Rate [1, 5] | Growth Rate [1, 6] | Growth Rate [2, 5] | Growth Rate [2, 7] | Growth Rate [2, 8] | Growth Rate [2, 9] | Growth Rate [2, 6] | Growth Rate [2, 10] | Growth Rate [2, 11] | Growth Rate [2, 12] | Growth Rate [3, 4] | Growth Rate [1, 8] | Growth Rate [1, 10] | Growth Rate [1, 11] | Growth Rate [1, 12] | Growth Rate [3, 10] | Growth Rate [1, 9] | Growth Rate [3, 5] | Growth Rate [3, 8] | Growth Rate [3, 6] | other results
CCc1nn2c(C)cc(C)nc2c1Cc1ccc(-c2nnc(C3CCNCC3)o2)cc1 | 0.9 | 0.88 | -0.59 | 0.22 | -0.55 | 0.37 | -0.43 | 0.56 | -0.25 | 0.65 | 0.09 |  |  |  |  |  |  |  |  |  | Growth Rate [1, 4]: 0.38
O=C(CCCc1ccccc1)Nc1nc2ccccc2c(=O)s1 | 0.03 | 0.34 | -0.7 | -0.65 | -0.62 | -0.39 | -0.7 | -0.32 | -0.59 | -0.34 |  | 0.13 | 0.95 | 0.34 | 0.84 | 0.76 |  |  |  |  | Growth Rate [1, 4]: 0.98; Growth Rate [2, 4]: 0.6; Growth Rate [3, 13]: -0.37; Growth Rate [3, 7]: 0.67; Growth Rate [3, 9]: 0.83; Growth Rate [3, 12]: 0.84
CCOC(=O)c1c(/C(C#N)=C\N)c2ccc(Cl)c(Cl)c2n1C | 0.56 | 0.9 |  |  | 0.64 | 0.53 | 0.47 | 0.72 | 0.29 | 0.73 |  |  | 0.7 | 0.99 | 0.93 |  | 0.77 | 0.29 | 0.64 | 0.5 | Growth Rate [1, 13]: 0.5; Growth Rate [1, 4]: 0.59; Growth Rate [1, 7]: 0.47; Growth Rate [2, 13]: 0.69; Growth Rate [3, 13]: -0.21; Growth Rate [3, 11]: 0.73
COc1cc2nc(N3CCN(C(=O)COc4c(OC)cccc4C(C)C)CC3)nc(N)c2cc1OC.Cl.Cl | -0.28 | 0.21 | -0.72 | -0.55 | -0.84 | -0.41 | -0.75 | -0.48 | -0.65 | -0.39 | -1 | -0.06 | 0.61 | 0.39 | 0.84 |  | 0.66 |  | 0.56 |  | Growth Rate [1, 4]: 0.59; Growth Rate [1, 7]: 0.9; Growth Rate [2, 4]: 0.71
CN1C[C@@H](NS(=O)(=O)N(C)C)C[C@@H]2c3cccc4c3c(cn4C)C[C@H]21.Cl [MESULERGINE HYDROCHLORIDE] |  |  |  | -0.13 |  | 0.81 |  |  |  |  |  |  |  |  |  |  | 0.91 |  |  | 0.99 | Growth Rate [1, 13]: 0.52; Growth Rate [1, 4]: 0.55; Growth Rate [3, 13]: 0.87; Growth Rate [3, 7]: 0.84; Growth Rate [3, 12]: 0.99
CC[S+]([O-])c1nc(-c2cccc(OCc3ccccc3)c2)cc(C(F)(F)F)n1 (stereo not given) | -0.65 | -0.27 | -0.79 | -0.73 | -0.65 | -0.52 | -0.48 |  | -0.4 | -0.5 | -1 | -0.45 | -0.43 | -0.13 | -0.24 | 0.03 | -0.65 | -0.91 | -0.48 | -0.19 | Growth Rate [1, 7]: -0.82; Growth Rate [3, 7]: -0.17; Growth Rate [3, 9]: -0.16; Growth Rate [3, 11]: -0.09; Growth Rate [3, 12]: 0.16
O=c1ccc2ccc(OCCCCN3CCN(c4cccc5sccc45)CC3)cc2[nH]1 [BREXPIPRAZOLE] | -0.63 | -0.32 | -0.55 | 0.52 | 0.1 | 0.53 | 0.08 | 0.81 | 0.3 | 0.76 | -0.19 | -0.43 |  | -0.26 |  |  |  | 0.98 |  |  | Growth Rate [3, 13]: 0.42
CN1CCN(c2ccc(Nc3c4ccccc4nc4ccccc34)cc2)CC1.Cl.Cl.O | -0.94 | -0.62 | -0.84 | 0.16 | -0.56 | 0.17 | -0.39 | 0.08 | -0.25 | 0.11 | 0.67 | -0.78 | -0.61 | -0.48 | -0.52 | -0.17 | -0.81 | 0.19 | -0.09 | -0.2 | Growth Rate [1, 7]: -0.96; Growth Rate [2, 4]: 0.35; Growth Rate [3, 7]: 0.29; Growth Rate [3, 9]: -0.02; Growth Rate [3, 11]: -0.28
CC(C)COc1ccc(CNC(=O)N(Cc2ccc(F)cc2)C2CCN(C)CC2)cc1 [PIMAVANSERIN] | -0.67 | -0.21 | 0.97 | -0.26 | 0.37 | -0.05 | 0.14 |  | 0.27 | 0.26 |  | -0.29 | 0.1 | -0.29 | -0.01 | 0.26 | 0.31 | 0.56 | 0.62 | 0.57 | Growth Rate [1, 7]: 0.4; Growth Rate [3, 7]: 0.04; Growth Rate [3, 9]: 0.31; Growth Rate [3, 11]: 0.5; Growth Rate [3, 12]: 0.24
CC[C@H](Nc1ncnc2[nH]cnc12)c1nc2cccc(F)c2c(=O)n1-c1ccccc1 [IDELALISIB] | 0.2 | 0.56 | -0.73 | 0.36 | -0.05 | 0.48 | -0.04 | 0.59 | -0.13 | 0.75 | -0.03 | 0.52 | 0.7 | 0.64 | 0.68 | 0.68 | 0.57 | 0.46 | 0.4 | 0.44 | Growth Rate [1, 7]: 0.76; Growth Rate [3, 13]: 0.06; Growth Rate [3, 7]: 0.59; Growth Rate [3, 9]: 0.55; Growth Rate [3, 11]: 0.59; Growth Rate [3, 12]: 0.73
COC[C@@H](CC(C)C)NC1=N/C(=C\c2ccc3ncsc3c2)C(=O)N1C | 0.84 | 0.39 |  |  |  |  |  |  |  |  | 0.78 | 0.24 | 0.38 | 0.48 | 0.42 | 0.38 | 0.41 |  | 0.43 | 0.22 | Growth Rate [1, 13]: -0.43; Growth Rate [1, 4]: -0.15; Growth Rate [2, 13]: 0.25; Growth Rate [2, 4]: -0.23; Growth Rate [3, 9]: 0.53; Growth Rate [3, 11]: 0.25; Growth Rate [3, 12]: 0.35
CCCCCCNC(=O)Nc1ccc(S(=O)(=O)Nc2ccc(CCNC[C@H](O)COc3ccc(O)cc3)cc2)cc1 [L-755507] |  |  | 0.91 | -0.46 |  | 0.47 |  |  |  |  |  |  |  |  |  | 0.79 | 0.94 | 0.25 | 0.32 | 0.87 | Growth Rate [1, 13]: 0.4; Growth Rate [1, 7]: 0.53; Growth Rate [2, 13]: 0.5; Growth Rate [2, 4]: 0.79; Growth Rate [3, 7]: 0.75; Growth Rate [3, 9]: 0.7; Growth Rate [3, 11]: 0.87; Growth Rate [3, 12]: 0.89
CN(C)C(=O)Cn1cc(-c2ccc(-c3nnc4ccccn34)cc2)cn1 | 0.7 | 0.88 |  |  | 0.37 | 0.94 | 0.8 | 0.91 | 0.56 | 0.74 | 0.08 | 0.74 |  | 0.78 |  | 0.91 |  | 0.68 | 0.46 | 0.79 | Growth Rate [1, 13]: 0.69; Growth Rate [2, 13]: 0.68; Growth Rate [2, 4]: 0.31; Growth Rate [3, 13]: -0.47; Growth Rate [3, 11]: 0.83
